# Laboratory results reported in patent US10011615B2, “Heterobicyclo-substituted [1,2,4]triazolo[1,5-c]quinazolin-5-amine compounds with A2A anatagonist properties” (Merck Sharp & Dohme Corp., priority 2012, dated 2018).
# Target: T1, human A2a receptor (Homo sapiens, UniProt P29274)
# T1 construct: purchased Perkin-Elmer RBHA2AM400UA; host or cells: HEK293 cell membranes
# Test: A2a receptor competition binding assay using Scintillation Proximity technology
# Conditions: membranes from HEK293 cells expressing human A2a receptor; 0.5 nM tritiated radioligand; SPA beads; 1 h room temperature
# Experimental: Binding affinities of compounds of the invention for the human A2a receptor were determined in a competition binding assay using Scintillation Proximity technology. Thus, 0.3 μg of membranes from HEK293 cells expressing the human A2a receptor were incubated with a compound of the invention at concentrations ranging from 3000 nM to 0.15 nM in a reaction mixture containing also 0.5 nM of a tritiated form of 5-amino-7-[2-phenethyl]-2-(furan-2-yl)-7H-pyrazolo[4,3-e][1,2,4]triazolo[1,5-c]pyrimidine (the tritiated compound) and 100 μg of wheat germ agglutin-coated yttrium silicate SPA beads for one hour at room temperature with agitation. The beads were then allowed to settle to the bottom of the wells for 1 hr, after which the membrane-associated radioactivity was determined by scintillation counting in a TopCount microplate reader. Ki values were determined using the Cheng-Prusoff equation.
# Summary of Materials and Methods Used in A2a Activity Determination:
# HEK293 cells expressing the human, rat, dog or monkey adenosine 2a receptor (Purchased from Perkin-Elmer # RBHA2AM400UA).
# The Tritiated compound was prepared in-house by MRL Radiochemistry according to published methods.
# Wheat germ agglutinin-coated yttrium silicate SPA beads (GE Healthcare#RPNQ0023). Dilute to 25 mg/ml in assay buffer.
# Assay Buffer was prepared in house: Dulbecco's calcium and magnesium free phosphate buffered saline+10 mM MgCl2
# Adenosine deaminase from calf intestine, 10 mg/2 ml (Roche) 10 102 105 001).
# A2a antagonist standard (9-chloro-1-(2-furanyl)-[1,2,4]triazolo1,5-c]quinazolin-5-amine from Tocris Bioscience)
# Make eight 1:3 serial dilutions in 100% DMSO from a 3 mM compound stock
# Transfer 50 nl of compound into a 384-well OptiPlate (Perkin Elmer).
# Typically, final concentrations of compound used in the assay ranged from 3000 nM to 0.152 nM.
# Dilute a solution of the Tritiated compound to 1.25 nM in assay buffer. This is a 2.5× solution. The final concentration in the assay is 0.5 nM. Calculate the concentration by counting two 5 μl aliquots.
# Use 0.25 ug of membrane/well. Dilute membranes to 9.7 μg/ml in assay buffer. Treat with 20 ug/ml adenosine deaminase (ADA) for 15 minutes at room temperature to degrade endogenous adenosine.
# Use 100 μg/well wheat germ agglutinin-coated yttrium silicate SPA beads.
# Mix ADA-treated membranes and SPA beads together for 30 min prior to assay.
# To the Perkin-Elmer Optiplate-384 containing the compound titration add 20 μl of 2.5× solution of the Tritiated compound and 30 μl of the membrane-bead mixture. Incubate for one hour at room temperature with agitation.
# Include total binding (assay buffer+1% DMSO) and non-specific binding (CGS15943, 1 μM) wells.
# Allow the beads to settle for one hour.
# A curve fitting program (i.e., Prism, Activity Base, Chemcart) is used to determine the EC50. The Ki value is calculated using the Cheng-Prusoff equation: K i=EC50/(1+(radioligand concentration/Kd)).
# T1 sequence (P29274 whole entry): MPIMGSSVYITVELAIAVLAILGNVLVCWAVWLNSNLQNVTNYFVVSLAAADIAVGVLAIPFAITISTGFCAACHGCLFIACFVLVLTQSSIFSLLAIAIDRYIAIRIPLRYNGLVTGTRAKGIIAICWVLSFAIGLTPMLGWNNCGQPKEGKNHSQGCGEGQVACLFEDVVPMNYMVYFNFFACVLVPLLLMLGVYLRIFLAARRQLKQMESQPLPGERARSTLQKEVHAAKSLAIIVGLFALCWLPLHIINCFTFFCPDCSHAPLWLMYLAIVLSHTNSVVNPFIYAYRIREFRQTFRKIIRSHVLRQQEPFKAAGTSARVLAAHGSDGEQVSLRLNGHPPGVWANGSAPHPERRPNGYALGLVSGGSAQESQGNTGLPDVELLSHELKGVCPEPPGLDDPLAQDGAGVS
row,EC50,SMILES
1,27.6 nM,"COc1cccc2c1nc(N)n1nc(CN3CCc4nccnc4C3)nc21 [Ex-150, 2-((7,8-dihydropyrido[4,3-b]pyrazin-6(5H)-yl)methyl)-7-methoxy-[1,2,4]triazolo[1,5-c]quinazolin-5-amine]"
2,10.9 nM,"Nc1nc2c(OCF)cccc2c2nc(CN3CCc4cccnc4C3)nn12 [Ex-205, 2-((5,6-dihydro-1,7-naphthyridin-7(8H)-yl)methyl)-7-(fluoromethoxy)-[1,2,4]triazolo[1,5-c]quinazolin-5-amine]"
3,1 nM,"CC[C@H](Cc1nc2c3cccc(OC)c3nc(N)n2n1)N1Cc2nc(C)oc2C1 [Ex-248, (R)-7-methoxy-2-(2-(2-methyl-4H-pyrrolo[3,4-d]oxazol-5(6H)-yl)butyl)-[1,2,4]triazolo[1,5-c]quinazolin-5-amine]"
4,16.6 nM,CCN1CCN(c2ccc3c(n2)CN(CCc2nc4c5cccc(OC)c5nc(N)n4n2)C3)CC1 [Ex-66]
5,8.6 nM,"COc1cc(F)cc2c1nc(N)n1nc(CN3Cc4cccnc4C3)nc21 [Ex-164, 2-((5H-pyrrolo[3,4-b]pyridin-6(7H)-yl)methyl)-9-fluoro-7-methoxy-[1,2,4]triazolo[1,5-c]quinazolin-5-amine]"
6,31.6 nM,"COc1cccc2c1nc(N)n1nc(CN3CCc4cccc(CN5CCN(c6ccccn6)CC5)c4C3)nc21 [Ex-126, 7-methoxy-2-((8-((4-(pyridin-2-yl)piperazin-1-yl)methyl)-3,4-dihydroisoquinolin-2(1H)-yl)methyl)-[1,2,4]triazolo[1,5-c]quinazolin-5-amine]"
7,1.5 nM,"COc1cccc2c1nc(N)n1nc(CN3CCCCc4ccc(Cl)nc43)nc21 [Ex-160, 2-((2-chloro-7,8-dihydro-5H-pyrido[2,3-b]azepin-9(6H)-yl)methyl)-7-methoxy-[1,2,4]triazolo[1,5-c]quinazolin-5-amine]"
8,7.7 nM,"COc1cccc2c1nc(N)n1nc(CCCN3Cc4cccnc4C3)nc21 [Ex-227, 2-(3-(5H-pyrrolo[3,4-b]pyridin-6(7H)-yl)propyl)-7-methoxy-[1,2,4]triazolo[1,5-c]quinazolin-5-amine]"
9,13.6 nM,COc1cccc2c1nc(N)n1nc(CCN3Cc4ccc(N5CCCC5)nc4C3)nc21 [Ex-65]
10,48.2 nM,"COc1cccc2c1nc(N)n1nc(CN3CCc4cncnc4C3)nc21 [Ex-151, 2-((5,6-dihydropyrido[3,4-d]pyrimidin-7(8H)-yl)methyl)-7-methoxy-[1,2,4]triazolo[1,5-c]quinazolin-5-amine]"
11,2.4 nM,"COc1cccc2c1nc(N)n1nc(CCN3CCc4cncnc4C3)nc21 [Ex-53, 2-(2-(5,6-dihydropyrido[3,4-d]pyrimidin-7(8H)-yl)ethyl)-7-methoxy-[1,2,4]triazolo[1,5-c]quinazolin-5-amine]"
12,1.8 nM,COc1cccc2c1nc(N)n1nc(CCN3CCc4sccc4C3)nc21 [Ex-39]
13,4.2 nM,"COc1cccc2c1nc(N)n1nc(CCN3CCn4nccc43)nc21 [Ex-33, 2-(2-(2,3-dihydro-1H-imidazo[1,2-b]pyrazol-1-yl)ethyl)-7-methoxy-[1,2,4]triazolo[1,5-c]quinazolin-5-amine]"
14,0.3 nM,"COc1cccc2c1nc(N)n1nc(CCN3Cc4nc(C)oc4C3)nc21 [Ex-244, 7-methoxy-2-(2-(2-methyl-4H-pyrrolo[3,4-d]oxazol-5(6H)-yl)ethyl)-[1,2,4]triazolo[1,5-c]quinazolin-5-amine]"
15,24.7 nM,Nc1nc2c(Cl)cccc2c2nc(CCN3CCCc4ccccc43)nn12 [Ex-82]
16,17.9 nM,COc1cccc2c1nc(N)n1nc(CC(N3Cc4cccnc4C3)C(F)(F)F)nc21 (stereo not shown) [Ex-108]
17,12.8 nM,"COc1cccc2c1nc(N)n1nc(CCN3CCCCc4cccnc43)nc21 [Ex-20, 2-(2-(7,8-dihydro-5H-pyrido[2,3-b]azepin-9(6H)-yl)ethyl)-7-methoxy-[1,2,4]triazolo[1,5-c]quinazolin-5-amine]"
18,4.4 nM,"COc1cccc2c1nc(N)n1nc(CN3CCc4ccc(-c5cncnc5)cc4C3)nc21 [Ex-165, 7-methoxy-2-((7-(pyrimidin-5-yl)-3,4-dihydroisoquinolin-2(1H)-yl)methyl)-[1,2,4]triazolo[1,5-c]quinazolin-5-amine]"
19,11.1 nM,"COc1cccc2c1nc(N)n1nc(CCN3Cc4ccccc4C3)nc21 [Ex-24, 2-(2-(isoindolin-2-yl)ethyl)-7-methoxy-[1,2,4]triazolo[1,5-c]quinazolin-5-amine]"

row,EC50,SMILES
1,40.7 nM,"CCOc1cccc2c1nc(N)n1nc(CN3CCc4cccnc4C3)nc21 [Ex-204, 2-((5,6-dihydro-1,7-naphthyridin-7(8H)-yl)methyl)-7-ethoxy-[1,2,4]triazolo[1,5-c]quinazolin-5-amine]"
2,4.5 nM,"COc1cccc2c1nc(N)n1nc(CN3CCc4ccc(NC(=O)c5ccccn5)cc4C3)nc21 [Ex-166, N-(2-((5-amino-7-methoxy-[1,2,4]triazolo[1,5-c]quinazolin-2-yl)methyl)-1,2,3,4-tetrahydroisoquinolin-7-yl)picolinamide]"
3,7.6 nM,COc1cccc2c1nc(N)n1nc(CN3CCc4ccc(NC(C)=O)cc4C3)nc21 [Ex-167]
4,1.3 nM,"CCc1nc2c(s1)CN(CCc1nc3c4cccc(OC)c4nc(N)n3n1)C2 [Ex-243, 2-(2-(2-ethyl-4H-pyrrolo[3,4-d]thiazol-5(6H)-yl)ethyl)-7-methoxy-[1,2,4]triazolo[1,5-c]quinazolin-5-amine]"
5,31.2 nM,Nc1nc2c(F)cc(F)cc2c2nc(CCN3Cc4cccnc4C3)nn12 [Ex-100]
6,22.2 nM,Nc1nc2c(F)cccc2c2nc(CCN3Cc4ccc(F)cc4C3)nn12 [Ex-85]
7,12.2 nM,COc1cccc2c1nc(N)n1nc(C[C@H](N3Cc4cccnc4C3)C(F)(F)F)nc21 [Ex-109]
8,199 nM,COCc1cccc2c1nc(N)n1nc(CN3CCc4cccnc4C3)nc21 [Ex-199]
9,2.3 nM,"COc1cccc2c1nc(N)n1nc(CCN3CCc4oncc4C3)nc21 [Ex-35, 2-(2-(6,7-dihydroisoxazolo[4,5-c]pyridin-5(4H)-yl)ethyl)-7-methoxy-[1,2,4]triazolo[1,5-c]quinazolin-5-amine]"
10,19.5 nM,COc1cccc2c1nc(N)n1nc(C[C@H](C)N3Cc4cccnc4C3)nc21 [Ex-106]
11,0.2 nM,"COc1cccc2c1nc(N)n1nc(C[C@@H](C)N3Cc4nc(C)oc4C3)nc21 [Ex-247, (R)-7-methoxy-2-(2-(2-methyl-4H-pyrrolo[3,4-d]oxazol-5(6H)-yl)propyl)-[1,2,4]triazolo[1,5-c]quinazolin-5-amine]"
12,19 nM,COc1cc(F)cc2c1nc(N)n1nc(CCN3Cc4cccnc4C3)nc21 [Ex-98]
13,2.1 nM,"COc1cccc2c1nc(N)n1nc(CN3CCCc4ccccc43)nc21 [Ex-119, 2-((3,4-dihydroquinolin-1(2H)-yl)methyl)-7-methoxy-[1,2,4]triazolo[1,5-c]quinazolin-5-amine]"
14,2.7 nM,"COc1cccc2c1nc(N)n1nc(CN3CCCCc4ccc(-c5ccccn5)nc43)nc21 [Ex-162, 7-methoxy-2-((2-(pyridin-2-yl)-7,8-dihydro-5H-pyrido[2,3-b]azepin-9(6H)-yl)methyl)-[1,2,4]triazolo[1,5-c]quinazolin-5-amine]"
15,9.6 nM,"COc1cccc2c1nc(N)n1nc(CCN3CCn4c(nnc4C(F)(F)F)C3)nc21 [Ex-17, 7-methoxy-2-(2-(3-(trifluoromethyl)-5,6-dihydro[1,2,4]triazolo[4,3-a]pyrazin-7(8H)-yl)ethyl)-[1,2,4]triazolo[1,5-c]quinazolin-5-amine]"
16,1.7 nM,COc1cccc2c1nc(N)n1nc(CCN3Cc4nc(-c5ccccc5)[nH]c4C3)nc21 [Ex-34]
17,2.2 nM,"COc1cccc2c1nc(N)n1nc(CCN3CCc4c(sc(C5CC5)c4C#N)C3)nc21 [Ex-15, 6-(2-(5-amino-7-methoxy-[1,2,4]triazolo[1,5-c]quinazolin-2-yl)ethyl)-2-cyc1opropyl-4,5,6,7-tetrahydrothieno[2,3-c]pyridine-3-carbonitri1e]"
18,17 nM,"COc1cccc2c1nc(N)n1nc(CN3CCc4cccc(-c5cncnc5)c4C3)nc21 [Ex-177, 7-methoxy-2-((8-(pyrimidin-5-yl)-3,4-dihydroisoquinolin-2(1H)-yl)methyl)-[1,2,4]triazolo[l,5-c]quinazolin-5-amine]"
